Results as given in ChEMBL document CHEMBL4831528, “Discovery of Novel Pterostilbene-Based Derivatives as Potent and Orally Active NLRP3 Inflammasome Inhibitors with Inflammatory Activity for Colitis” (J Med Chem, 2021).
Active and inactive are the calls of the source. The calls are words filed in the database; no cut-off is given here.

Experiments:
[1] = target: T1, Interferon-inducible protein AIM2 (Mus musculus) (UniProt Q91VJ1); experiment: Inhibition of AIM2 inflammasome activation in LPS-stimulated mouse bone marrow-derived macrophages assessed as reduction in IL-1beta secretion at 2 uM preincubated for 30 mins followed by poly-(dA:dT) addition and measured after 4 hrs by ELISA; assay type: tissue-based; details: Macrophage, time 4.5 hrs
T1 sequence (whole entry): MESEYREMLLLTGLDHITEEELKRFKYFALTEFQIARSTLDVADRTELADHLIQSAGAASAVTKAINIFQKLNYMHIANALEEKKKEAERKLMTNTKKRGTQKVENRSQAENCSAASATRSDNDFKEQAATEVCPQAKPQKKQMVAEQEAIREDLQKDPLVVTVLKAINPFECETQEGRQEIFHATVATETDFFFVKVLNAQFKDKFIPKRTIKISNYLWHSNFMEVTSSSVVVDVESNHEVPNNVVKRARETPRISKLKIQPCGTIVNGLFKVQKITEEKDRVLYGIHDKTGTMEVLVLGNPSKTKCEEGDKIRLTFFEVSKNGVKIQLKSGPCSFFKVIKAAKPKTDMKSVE

[2] = target: NACHT, LRR and PYD domains-containing protein 3 (Mus musculus) (UniProt Q8R4B8); experiment: Inhibition of NLRP3 inflammasome activation in LPS-stimulated mouse bone marrow-derived macrophages assessed as reduction in cell pyrolysis at 5 to 25 uM preincubated for 30 mins followed by nigericin addition and measured after 30 mins by Western blot analysis; assay type: tissue-based; details: Macrophage, dose 5-25 µM, time 60.0 min
NACHT, LRR and PYD domains-containing protein 3 (Mus musculus), sequence (Q8R4B8 whole entry, the tested form may be a part): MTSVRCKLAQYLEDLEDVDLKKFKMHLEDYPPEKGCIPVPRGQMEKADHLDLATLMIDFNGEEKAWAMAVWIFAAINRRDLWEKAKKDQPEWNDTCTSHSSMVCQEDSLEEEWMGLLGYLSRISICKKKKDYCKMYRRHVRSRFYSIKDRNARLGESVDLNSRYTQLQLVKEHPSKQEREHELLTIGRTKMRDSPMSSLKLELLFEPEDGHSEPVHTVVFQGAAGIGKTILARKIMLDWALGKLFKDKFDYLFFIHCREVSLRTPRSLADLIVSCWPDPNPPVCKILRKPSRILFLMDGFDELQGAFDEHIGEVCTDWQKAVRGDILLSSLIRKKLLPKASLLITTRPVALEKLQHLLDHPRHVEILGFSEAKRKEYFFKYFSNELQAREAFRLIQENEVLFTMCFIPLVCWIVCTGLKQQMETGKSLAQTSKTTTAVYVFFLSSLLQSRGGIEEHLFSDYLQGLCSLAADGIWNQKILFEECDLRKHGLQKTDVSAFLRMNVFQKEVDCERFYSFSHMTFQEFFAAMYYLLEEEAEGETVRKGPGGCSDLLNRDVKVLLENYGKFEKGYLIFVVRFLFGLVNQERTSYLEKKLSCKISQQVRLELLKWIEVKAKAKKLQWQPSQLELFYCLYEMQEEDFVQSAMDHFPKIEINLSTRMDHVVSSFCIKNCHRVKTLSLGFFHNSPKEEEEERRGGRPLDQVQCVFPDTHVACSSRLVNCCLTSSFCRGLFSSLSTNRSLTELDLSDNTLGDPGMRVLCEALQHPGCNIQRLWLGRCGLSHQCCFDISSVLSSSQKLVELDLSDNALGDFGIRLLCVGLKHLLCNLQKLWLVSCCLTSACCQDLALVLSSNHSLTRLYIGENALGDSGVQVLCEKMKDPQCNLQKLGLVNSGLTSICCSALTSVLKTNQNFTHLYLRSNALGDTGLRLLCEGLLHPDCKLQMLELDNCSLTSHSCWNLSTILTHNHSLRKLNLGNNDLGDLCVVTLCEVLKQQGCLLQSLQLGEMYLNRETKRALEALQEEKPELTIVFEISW

[3] = Hepatic clearance in mouse liver microsomes preincubated for 5 mins followed by NADPH addition and measured after 5 to 60 mins by LC-MS/MS analysis; assay type: ADME, Microsome; details: time 5-60 min
[4] = Toxicity in C57BL/6 mouse assessed as induction of lethargy at 20 to 40 mg/kg, ig administered for 28 days; assay type: organism-based; details: in vivo, po, 672 h, dose 20-40 mg/kg, time 28 day
[5] = target: NACHT, LRR and PYD domains-containing protein 3 (Mus musculus) (UniProt Q8R4B8); experiment: Inhibition of NLRP3 inflammasome activation in LPS-stimulated mouse bone marrow-derived macrophages assessed as reduction in IL-1beta secretion at 1 to 4 uM preincubated for 30 mins followed by nigericin addition and measured after 0.5 hrs by Western blot analysis; assay type: tissue-based; details: Macrophage, dose 1-4 µM
[6] = Half life in mouse at 20 mg/kg, po measured up to 24 hrs by LC-MS/MS analysis; assay type: ADME, organism-based; details: in vivo
[7] = Intrinsic clearance in mouse liver microsomes preincubated for 5 mins followed by NADPH addition and measured after 5 to 60 mins by LC-MS/MS analysis; assay type: ADME, Microsome; details: time 5-60 min, read-out: CLH
[8] = target: NLR family CARD domain-containing protein 4 (Mus musculus) (UniProt Q3UP24); experiment: Inhibition of NLRC4 inflammasome activation in LPS-stimulated mouse bone marrow-derived macrophages assessed as reduction in IL-1beta secretion at 2 uM preincubated for 30 mins followed by Salmonella addition and measured after 4 hrs by ELISA; assay type: tissue-based; details: Macrophage, time 4.5 hrs
NLR family CARD domain-containing protein 4 (Mus musculus), sequence (Q3UP24 whole entry, the tested form may be a part): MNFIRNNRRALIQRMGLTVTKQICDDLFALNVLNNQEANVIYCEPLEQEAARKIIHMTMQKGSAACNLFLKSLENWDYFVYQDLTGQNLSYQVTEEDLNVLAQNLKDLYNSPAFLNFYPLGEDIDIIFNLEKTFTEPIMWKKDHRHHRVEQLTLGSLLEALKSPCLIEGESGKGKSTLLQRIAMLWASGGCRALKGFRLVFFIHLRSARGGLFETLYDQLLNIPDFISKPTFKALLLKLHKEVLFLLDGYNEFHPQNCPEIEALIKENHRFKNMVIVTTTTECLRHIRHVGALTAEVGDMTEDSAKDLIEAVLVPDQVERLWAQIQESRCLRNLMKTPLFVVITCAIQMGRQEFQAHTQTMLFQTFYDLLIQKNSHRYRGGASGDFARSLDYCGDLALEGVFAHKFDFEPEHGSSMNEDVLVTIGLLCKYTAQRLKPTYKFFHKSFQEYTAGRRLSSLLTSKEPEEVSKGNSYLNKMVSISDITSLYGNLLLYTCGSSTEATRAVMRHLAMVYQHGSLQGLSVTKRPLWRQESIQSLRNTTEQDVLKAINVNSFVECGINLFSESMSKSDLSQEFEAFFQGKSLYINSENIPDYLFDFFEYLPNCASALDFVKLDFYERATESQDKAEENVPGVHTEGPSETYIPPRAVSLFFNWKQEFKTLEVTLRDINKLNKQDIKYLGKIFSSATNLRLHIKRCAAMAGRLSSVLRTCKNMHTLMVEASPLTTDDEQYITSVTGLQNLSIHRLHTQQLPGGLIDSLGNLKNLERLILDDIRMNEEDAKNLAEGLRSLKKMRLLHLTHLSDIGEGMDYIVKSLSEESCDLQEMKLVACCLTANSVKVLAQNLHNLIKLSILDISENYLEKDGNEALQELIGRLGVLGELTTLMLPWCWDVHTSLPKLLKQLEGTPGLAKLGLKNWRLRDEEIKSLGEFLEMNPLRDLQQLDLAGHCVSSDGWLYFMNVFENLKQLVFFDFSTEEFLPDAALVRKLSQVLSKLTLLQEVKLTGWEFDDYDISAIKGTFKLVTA

[9] = Cmax in mouse at 2 mg/kg, iv measured after 0.08 to 24 hrs by LC-MS/MS analysis; assay type: ADME, organism-based; set-up: route intravenous, time 0.08-24 hrs, dose 2 mg/kg; details: in vivo
[10] = target: NACHT, LRR and PYD domains-containing protein 3 (Mus musculus) (UniProt Q8R4B8); experiment: Inhibition of NLRP3 inflammasome activation in LPS-stimulated mouse bone marrow-derived macrophages assessed as reduction in cleaved IL-1beta in supernatant at 2 uM preincubated for 30 mins followed by MSU addition and measured after 0.5 hrs by Western blot analysis; assay type: tissue-based; details: Macrophage, time 60.0 min
[11] = Toxicity in C57BL/6 mouse assessed as weight gain at 20 to 40 mg/kg, ig administered for 28 days; assay type: organism-based; details: in vivo, po, 672 h, dose 20-40 mg/kg, time 28 day
[12] = system: BMDM; experiment: Effect on ASC expression in LPS-stimulated mouse bone marrow-derived macrophages at 0.5 to 2 uM preincubated for 30 mins followed by nigericin addition and measured after 30 mins by Western blot analysis; assay type: functional, tissue-based; details: dose 0.5-2 µM, time 60.0 min
[13] = Half life in mouse at 2 mg/kg, iv measured after 0.08 to 24 hrs by LC-MS/MS analysis; assay type: ADME, organism-based; details: in vivo, time 0.08-24 hrs
[14] = system: Mus musculus; experiment: Downregulation of NLRP3 expression in colon of C57BL/6 mouse model of DSS-induced ulcerative colitis at 10 to 20 mg/kg, ig administered for 7 days by Western blot analysis; assay type: functional, organism-based; details: dose 10-20 mg/kg, time 7.0 day
[15] = target: NACHT, LRR and PYD domains-containing protein 3 (Mus musculus) (UniProt Q8R4B8); experiment: Inhibition of NLRP3 inflammasome activation in LPS-stimulated mouse bone marrow-derived macrophages assessed as reduction in pro caspase1 secretion in cell lysate at 2 uM preincubated for 30 mins followed by nigericin addition and measured after 0.5 hrs by Western blot analysis; assay type: subcellular; details: Macrophage, time 60.0 min
[16] = system: BMDM; experiment: Effect on NEK7 expression in LPS-stimulated mouse bone marrow-derived macrophages at 0.5 to 2 uM preincubated for 30 mins followed by nigericin addition and measured after 30 mins by Western blot analysis; assay type: functional, tissue-based; details: dose 0.5-2 µM, time 60.0 min
[17] = system: Mus musculus; experiment: Protection against DSS-induced acute ulcerative colitis in C57BL/6 mouse assessed as reduction in decrease in goblet cells at 10 to 20 mg/kg, ig administered for 7 days by Hematoxylin and eosin staining based optical microscopy; assay type: functional, organism-based; details: dose 10-20 mg/kg, time 7.0 day
[18] = Toxicity in C57BL/6 mouse assessed as effect on heart at 20 to 40 mg/kg, ig administered for 28 days; assay type: organism-based; details: in vivo, po, 672 h, dose 20-40 mg/kg, time 28 day
[19] = target: NACHT, LRR and PYD domains-containing protein 3 (Mus musculus) (UniProt Q8R4B8); experiment: Inhibition of NLRP3 inflammasome activation in LPS-stimulated mouse bone marrow-derived macrophages assessed as reduction in ILbeta secretion at 2 uM preincubated for 30 mins followed by nigericin addition and measured after 0.5 hrs by ELISA; assay type: tissue-based; details: Macrophage, time 60.0 min
[20] = target: T2, NACHT, LRR and PYD domains-containing protein 3 (Homo sapiens, UniProt Q96P20); experiment: Inhibition of recombinant human NLRP3 preincubated for 15 mins followed by ATP addition by ADP-Glo kinase assay
T2 sequence (Q96P20 whole entry, the tested form may be a part): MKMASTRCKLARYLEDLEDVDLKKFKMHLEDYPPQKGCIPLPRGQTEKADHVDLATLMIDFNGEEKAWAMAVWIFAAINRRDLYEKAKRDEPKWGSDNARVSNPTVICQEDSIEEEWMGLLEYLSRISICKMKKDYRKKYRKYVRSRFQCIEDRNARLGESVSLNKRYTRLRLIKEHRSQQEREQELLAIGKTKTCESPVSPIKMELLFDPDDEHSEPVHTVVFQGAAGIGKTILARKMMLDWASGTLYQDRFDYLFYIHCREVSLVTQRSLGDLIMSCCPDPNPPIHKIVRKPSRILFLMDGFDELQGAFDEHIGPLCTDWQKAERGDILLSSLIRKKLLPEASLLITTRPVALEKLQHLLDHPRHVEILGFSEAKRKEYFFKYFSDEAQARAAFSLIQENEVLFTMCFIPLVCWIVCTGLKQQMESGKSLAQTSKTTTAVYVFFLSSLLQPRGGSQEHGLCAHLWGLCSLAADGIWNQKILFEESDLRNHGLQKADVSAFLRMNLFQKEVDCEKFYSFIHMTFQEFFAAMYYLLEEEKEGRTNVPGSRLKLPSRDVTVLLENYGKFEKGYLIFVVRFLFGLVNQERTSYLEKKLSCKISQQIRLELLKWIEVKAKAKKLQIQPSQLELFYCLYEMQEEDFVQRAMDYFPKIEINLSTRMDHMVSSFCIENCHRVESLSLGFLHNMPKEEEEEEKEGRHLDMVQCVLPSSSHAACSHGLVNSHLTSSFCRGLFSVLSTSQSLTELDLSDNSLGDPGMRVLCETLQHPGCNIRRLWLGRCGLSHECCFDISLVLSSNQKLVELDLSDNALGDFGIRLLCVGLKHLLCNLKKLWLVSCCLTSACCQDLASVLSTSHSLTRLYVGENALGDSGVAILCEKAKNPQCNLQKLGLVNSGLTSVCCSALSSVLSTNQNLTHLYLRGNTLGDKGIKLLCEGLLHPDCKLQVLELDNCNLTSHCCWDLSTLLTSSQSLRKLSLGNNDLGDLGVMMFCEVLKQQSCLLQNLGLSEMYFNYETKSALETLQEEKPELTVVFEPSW

[21] = system: BMDM; experiment: Effect on pro-IL1beta expression in LPS-stimulated mouse bone marrow-derived macrophages at 0.5 to 2 uM preincubated for 30 mins followed by nigericin addition and measured after 30 mins by Western blot analysis; assay type: functional, tissue-based; details: dose 0.5-2 µM, time 60.0 min
[22] = target: NACHT, LRR and PYD domains-containing protein 3 (Mus musculus) (UniProt Q8R4B8); experiment: Inhibition of NLRP3 inflammasome activation in LPS-stimulated mouse bone marrow-derived macrophages assessed as reduction in NLRP3/ASC protein-protein interaction preincubated for 30 mins followed by nigericin addition and measured after 30 mins by immunoprecipitation method; assay type: tissue-based; details: Macrophage, time 60.0 min
[23] = target: NACHT, LRR and PYD domains-containing protein 3 (Mus musculus) (UniProt Q8R4B8); experiment: Inhibition of NLRP3 inflammasome activation in LPS-stimulated mouse bone marrow-derived macrophages assessed as reduction in caspase1 p20 in supernatant at 2 uM preincubated for 30 mins followed by MSU addition and measured after 0.5 hrs by Western blot analysis; assay type: tissue-based; details: Macrophage, time 60.0 min
[24] = target: T2, NACHT, LRR and PYD domains-containing protein 3; experiment: Binding affinity to His-GFP fused tagged NLRP3 (unknown origin) expressed in HEK293T assessed as thermal stabilization at 10 uM incubated for 30 mins by cellular thermal shift assay; assay type: cell-based
[25] = system: L02; experiment: Cytotoxicity against human L-02 cells incubated for 24 hrs by MTT assay; assay type: cell-based; details: L02, 24 h
[26] = system: Mus musculus; experiment: Downregulation of IL-1beta expression in colon of C57BL/6 mouse model of DSS-induced ulcerative colitis at 10 to 20 mg/kg, ig administered for 7 days by Western blot analysis; assay type: functional, organism-based; details: dose 10-20 mg/kg, time 7.0 day
[27] = AUC (0 to infinity) in mouse at 2 mg/kg, iv measured after 0.08 to 24 hrs by LC-MS/MS analysis; assay type: ADME, organism-based; set-up: route intravenous, time upper 24 hrs, dose 2 mg/kg, time lower 0.08 hrs; details: in vivo
[28] = Toxicity in C57BL/6 mouse assessed as loose fur at 20 to 40 mg/kg, ig administered for 28 days; assay type: organism-based; details: in vivo, po, 672 h, dose 20-40 mg/kg, time 28 day

In the case of `COc1cc(/C=C/c2ccc(NC(=O)C3CC3)cc2)c(/C=C/[N+](=O)[O-])c(OC)c1`, the inhibition [1] is reported as “inactive”, the inhibition [2] is reported as “Active” and the CLhep predicted [3] is reported as 52.5 mL/min/kg. The Activity [4] was “Non-Toxic”, the inhibition [5] was “Active” and the half-life [6] was 4.93 h. For the same molecule, the microsomal CLint [7] was 32 µL/min/mg, the inhibition [8] was “inactive” and the Cmax [9] was 355 ng/mL. The inhibition [10] was “Active”, the Activity [11] was “Non-Toxic” and the Activity [12] was “inactive”. For the same molecule, the half-life [13] was 0.96 h, the Activity [14] was “Active” and the inhibition [15] was “Active”. The Activity [16] was “inactive”, the Activity [17] was “Active” and the Activity [18] was “Non-Toxic”. For the same molecule, the inhibition [19] was “Active”, the inhibition [20] was “Dose-Dependent Effect” and the Activity [21] was “inactive”. The inhibition [22] was “Dose-Dependent Effect”, the inhibition [23] was “Active” and the Activity [24] was “Active”. For the same molecule, the IC50 [25] was greater than 100 µM, the Activity [26] was “Active” and the AUC(0-inf) [27] was 583 ng·h/mL. The Activity [28] was “Non-Toxic”.
